Data from ChEMBL document CHEMBL3612057, “Discovery of indolizines containing triazine moiety as new leads for the development of antitumoral agents targeting mitotic events” (2015).
The source made the active and inactive calls. The calls are words filed in the database; no cut-off is given here.

Columns and labels:
[1] = system: UACC-257; assay: Cytotoxicity against human UACC257 cells assessed as growth inhibition at 10 uM after 24 hrs by SRB assay; format: functional
[2] = system: SF-295; assay: Cytotoxicity against human SF295 cells assessed as growth inhibition at 10 uM after 24 hrs by SRB assay; format: functional
[3] = system: RXF 393; assay: Cytotoxicity against human RXF393 cells assessed as growth inhibition at 10 uM after 24 hrs by SRB assay; format: functional; conditions: RXF 393, 24 h, read-out: GI
[4] = system: TK-10; assay: Cytotoxicity against human TK10 cells assessed as growth inhibition at 10 uM after 24 hrs by SRB assay; format: functional
[5] = system: NCI/ADR-RES; assay: Cytotoxicity against human NCI/ADR-RES cells assessed as growth inhibition at 10 uM after 24 hrs by SRB assay; format: functional
[6] = system: MCF7; assay: Cytotoxicity against human MCF7 cells assessed as growth inhibition at 10 uM after 24 hrs by SRB assay; format: functional
[7] = system: SK-OV-3; assay: Cytotoxicity against human SKOV3 cells assessed as growth inhibition at 10 uM after 24 hrs by SRB assay; format: functional
[8] = species: Ovis aries; assay: Inhibition of sheep tubulin polymerization at 100 uM by fluorescence assay
[9] = Cytotoxicity against human Hs578T cells assessed as growth inhibition at 10 uM after 24 hrs by SRB assay; format: functional; conditions: Hs-578T, read-out: GI
[10] = system: SR; assay: Cytotoxicity against human SR cells assessed as growth inhibition at 10 uM after 24 hrs by SRB assay; format: functional; conditions: read-out: GI
[11] = system: MDA-MB-435; assay: Cytotoxicity against human MDA-MB-435 cells assessed as growth inhibition at 10 uM after 24 hrs by SRB assay; format: functional
[12] = system: NCI-H460; assay: Cytotoxicity against human NCI-H460 cells assessed as growth inhibition at 10 uM after 24 hrs by SRB assay; format: functional
[13] = system: 786-0; assay: Cytotoxicity against human 786-0 cells assessed as growth inhibition at 10 uM after 24 hrs by SRB assay; format: functional
[14] = system: UACC-62; assay: Cytotoxicity against human UACC62 cells assessed as growth inhibition at 10 uM after 24 hrs by SRB assay; format: functional
[15] = system: PC-3; assay: Cytotoxicity against human PC3 cells assessed as growth inhibition at 10 uM after 24 hrs by SRB assay; format: functional
[16] = system: CCRF-CEM; assay: Cytotoxicity against human CCRF-CEM cells assessed as growth inhibition at 10 uM after 24 hrs by SRB assay; format: functional
[17] = system: HCT-116; assay: Cytotoxicity against human HCT116 cells assessed as growth inhibition at 10 uM after 24 hrs by SRB assay; format: functional
[18] = system: HOP-92; assay: Cytotoxicity against human HOP92 cells assessed as growth inhibition at 10 uM after 24 hrs by SRB assay; format: functional
[19] = system: HL-60(TB); assay: Cytotoxicity against human HL-60(TB) cells assessed as growth inhibition at 10 uM after 24 hrs by SRB assay; format: functional
[20] = system: K562; assay: Cytotoxicity against human K562 cells assessed as growth inhibition at 10 uM after 24 hrs by SRB assay; format: functional
[21] = system: RPMI-8226; assay: Cytotoxicity against human RPMI8226 cells assessed as growth inhibition at 10 uM after 24 hrs by SRB assay; format: functional
[22] = system: ACHN; assay: Cytotoxicity against human ACHN cells assessed as growth inhibition at 10 uM after 24 hrs by SRB assay; format: functional
[23] = system: OVCAR-3; assay: Cytotoxicity against human OVCAR3 cells assessed as growth inhibition at 10 uM after 24 hrs by SRB assay; format: functional
[24] = system: SNB-75; assay: Cytotoxicity against human SNB75 cells assessed as growth inhibition at 10 uM after 24 hrs by SRB assay; format: functional; conditions: SNB-75, 24 h, read-out: GI
[25] = system: T47D; assay: Cytotoxicity against human T47D cells assessed as growth inhibition at 10 uM after 24 hrs by SRB assay; format: functional
[26] = system: U-251; assay: Cytotoxicity against human U251 cells assessed as growth inhibition at 10 uM after 24 hrs by SRB assay; format: functional
[27] = system: SK-MEL-28; assay: Cytotoxicity against human SK-MEL-28 cells assessed as growth inhibition at 10 uM after 24 hrs by SRB assay; format: functional
[28] = system: OVCAR-4; assay: Cytotoxicity against human OVCAR4 cells assessed as growth inhibition at 10 uM after 24 hrs by SRB assay; format: functional
[29] = system: SF-539; assay: Cytotoxicity against human SF539 cells assessed as growth inhibition at 10 uM after 24 hrs by SRB assay; format: functional
[30] = system: Malme-3M; assay: Cytotoxicity against human MALME-3M cells assessed as growth inhibition at 10 uM after 24 hrs by SRB assay; format: functional
[31] = system: A549; assay: Cytotoxicity against human A549 cells assessed as growth inhibition at 10 uM after 24 hrs by SRB assay; format: functional
[32] = system: HOP-62; assay: Cytotoxicity against human HOP62 cells assessed as growth inhibition at 10 uM after 24 hrs by SRB assay; format: functional; conditions: HOP-62, 24 h, read-out: GI
[33] = system: MDA-MB-231; assay: Cytotoxicity against human MDA-MB-231 cells assessed as growth inhibition at 10 uM after 24 hrs by SRB assay; format: functional; conditions: MDA-MB-231, 24 h, read-out: GI
[34] = system: NCI-H522; assay: Cytotoxicity against human NCI-H522 cells assessed as growth inhibition at 10 uM after 24 hrs by SRB assay; format: functional
[35] = system: OVCAR-8; assay: Cytotoxicity against human OVCAR8 cells assessed as growth inhibition at 10 uM after 24 hrs by SRB assay; format: functional
[36] = system: CAKI-1; assay: Cytotoxicity against human CAKI-1 cells assessed as growth inhibition at 10 uM after 24 hrs by SRB assay; format: functional
[37] = system: NCI-H226; assay: Cytotoxicity against human NCI-H226 cells assessed as growth inhibition at 10 uM after 24 hrs by SRB assay; format: functional
[38] = system: SK-MEL-5; assay: Cytotoxicity against human SK-MEL-5 cells assessed as growth inhibition at 10 uM after 24 hrs by SRB assay; format: functional

COc1ccc(C(=O)c2cc(-c3nc(OC)nc(OC)n3)c3cc(C#N)ccn23)cc1
growth inhibition (GI) [1]: inactive | growth inhibition (GI) [2]: inactive | inhibition of growth at 10 µM [3]: 14% | growth inhibition (GI) [4]: inactive | growth inhibition (GI) [5]: inactive | growth inhibition (GI) [6]: inactive | growth inhibition (GI) [7]: inactive | inhibition [8]: inactive | inhibition of growth at 10 µM [9]: 16% | inhibition of growth at 10 µM [10]: 13% | growth inhibition (GI) [11]: inactive | growth inhibition (GI) [12]: inactive | growth inhibition (GI) [13]: inactive | growth inhibition (GI) [14]: inactive | growth inhibition (GI) [15]: inactive | growth inhibition (GI) [16]: inactive | growth inhibition (GI) [17]: inactive | growth inhibition (GI) [18]: inactive | growth inhibition (GI) [19]: inactive | growth inhibition (GI) [20]: inactive | growth inhibition (GI) [21]: inactive | growth inhibition (GI) [22]: inactive | growth inhibition (GI) [23]: inactive | inhibition of growth at 10 µM [24]: 46% | growth inhibition (GI) [25]: inactive | growth inhibition (GI) [26]: inactive | growth inhibition (GI) [27]: inactive | growth inhibition (GI) [28]: inactive | growth inhibition (GI) [29]: inactive | growth inhibition (GI) [30]: inactive | growth inhibition (GI) [31]: inactive | inhibition of growth at 10 µM [32]: 25% | inhibition of growth at 10 µM [33]: 18% | growth inhibition (GI) [34]: inactive | growth inhibition (GI) [35]: inactive | growth inhibition (GI) [36]: inactive | growth inhibition (GI) [37]: inactive | growth inhibition (GI) [38]: inactive

COc1nc(OC)nc(-c2cc(C(=O)c3ccc(Cl)cc3)n3ccccc23)n1
growth inhibition (GI) [1]: inactive | inhibition of growth at 10 µM ([2]; SF-295, 24 h, read-out: GI): 33% | inhibition of growth at 10 µM [3]: 37% | inhibition of growth at 10 µM ([4]; TK-10, 24 h, read-out: GI): 12% | growth inhibition (GI) [5]: inactive | inhibition of growth at 10 µM ([6]; MCF7, 24 h, read-out: GI): 19% | inhibition of growth at 10 µM ([7]; SK-OV-3, 24 h, read-out: GI): 55% | inhibition [8]: inactive | inhibition of growth at 10 µM [9]: 46% | inhibition of growth at 10 µM [10]: 26% | growth inhibition (GI) [11]: inactive | inhibition of growth at 10 µM ([12]; NCI-H460, 24 h, read-out: GI): 20% | inhibition of growth at 10 µM ([13]; 786-0, 24 h, read-out: GI): 31% | inhibition of growth at 10 µM ([14]; UACC-62, 24 h, read-out: GI): 14% | inhibition of growth at 10 µM ([15]; PC-3, 24 h, read-out: GI): 19% | inhibition of growth at 10 µM ([16]; read-out: GI): 11% | inhibition of growth at 10 µM ([17]; HCT-116, 24 h, read-out: GI): 26% | growth inhibition (GI) [18]: inactive | growth inhibition (GI) [19]: inactive | growth inhibition (GI) [20]: inactive | inhibition of growth at 10 µM ([21]; RPMI-8226, 24 h, read-out: GI): 13% | inhibition of growth at 10 µM ([22]; read-out: GI): 56% | growth inhibition (GI) [23]: inactive | inhibition of growth at 10 µM [24]: -3% | inhibition of growth at 10 µM ([25]; read-out: GI): 19% | inhibition of growth at 10 µM ([26]; U-251, 24 h, read-out: GI): 44% | inhibition of growth at 10 µM ([27]; SK-MEL-28, 24 h, read-out: GI): 12% | growth inhibition (GI) [28]: inactive | inhibition of growth at 10 µM ([29]; SF-539, 24 h, read-out: GI): 39% | inhibition of growth at 10 µM ([30]; read-out: GI): 30% | inhibition of growth at 10 µM ([31]; A549, 24 h, read-out: GI): 21% | inhibition of growth at 10 µM [32]: 77% | inhibition of growth at 10 µM [33]: 43% | inhibition of growth at 10 µM ([34]; NCI-H522, 24 h, read-out: GI): 47% | inhibition of growth at 10 µM ([35]; OVCAR-8, 24 h, read-out: GI): 24% | growth inhibition (GI) [36]: inactive | growth inhibition (GI) [37]: inactive | growth inhibition (GI) [38]: inactive
